Assay results taken from patent EP4596536A1 (Shanghai de Novo Pharmatech Co., Ltd., priority 2022, dated 2024).

These compounds were tested against T1, TLR8 (Homo sapiens, UniProt Q9NR97) (assay: HEK-BLUE-hTLR8 cell SEAP reporter assay (Quanti-Blue)). Conditions: HEK-BLUE-hTLR8 cells, 0.5 nM to 15 µM, 24 hours.
T1 construct: host or cells: HEK293 (HEK-BLUE-hTLR8)
T1 sequence (Q9NR97 27-1041): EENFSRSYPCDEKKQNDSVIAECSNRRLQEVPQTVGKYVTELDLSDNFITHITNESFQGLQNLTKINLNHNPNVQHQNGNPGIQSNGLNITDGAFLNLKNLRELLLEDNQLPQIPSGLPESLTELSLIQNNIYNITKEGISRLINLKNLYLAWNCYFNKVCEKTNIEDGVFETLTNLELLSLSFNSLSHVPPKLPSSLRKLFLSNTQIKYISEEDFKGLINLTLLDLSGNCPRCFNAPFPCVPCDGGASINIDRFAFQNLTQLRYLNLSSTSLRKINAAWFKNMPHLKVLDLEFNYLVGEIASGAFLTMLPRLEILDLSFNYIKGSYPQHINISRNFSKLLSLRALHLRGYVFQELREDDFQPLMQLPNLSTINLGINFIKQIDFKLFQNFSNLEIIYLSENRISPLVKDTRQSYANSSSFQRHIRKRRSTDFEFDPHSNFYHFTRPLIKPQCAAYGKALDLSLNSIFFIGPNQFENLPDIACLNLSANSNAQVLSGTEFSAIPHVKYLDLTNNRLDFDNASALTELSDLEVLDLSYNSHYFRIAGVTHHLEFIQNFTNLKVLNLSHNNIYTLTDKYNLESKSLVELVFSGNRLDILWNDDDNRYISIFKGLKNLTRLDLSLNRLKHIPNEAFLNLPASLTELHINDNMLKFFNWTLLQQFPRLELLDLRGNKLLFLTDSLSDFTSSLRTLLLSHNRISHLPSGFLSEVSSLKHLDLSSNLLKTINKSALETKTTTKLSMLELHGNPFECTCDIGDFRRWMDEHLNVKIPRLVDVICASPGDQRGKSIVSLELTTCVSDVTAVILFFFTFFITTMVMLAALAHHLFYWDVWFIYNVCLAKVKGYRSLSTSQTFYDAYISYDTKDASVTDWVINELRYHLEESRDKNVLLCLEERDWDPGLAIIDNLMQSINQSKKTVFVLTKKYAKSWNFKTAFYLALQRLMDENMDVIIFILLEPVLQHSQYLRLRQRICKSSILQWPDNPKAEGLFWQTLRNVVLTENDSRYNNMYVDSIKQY
Assay type: cell-based
Procedure: In this experiment, the biological activity of TLR7 and TLR8 in the compound of formula I was detected using cell tests. This method was conducted in human embryonic kidney cells (HEK293) expressing TLR family members such as TLR4, TLR7, TLR8 or TLR9. TLR agonists activate TLRs, triggering the activation of downstream NF-kB, which in turn activates the secreted embryonic alkaline phosphatase (SEAP) reporter gene. The activity of SEAP was detected using the Quanti-Blue (InvivoGen) reagent, thereby reflecting the activities of TLR7 and TLR8 agonists.
The detailed experimental method was as follows: HEK-BLUE-hTLR7 and HEK-BLUE-hTLR8 cell lines were purchased from Invivogen Company and cultured in DMEM medium containing 4.5 g/L glucose (Sigma-Aldrich) and 10% fetal bovine serum under the conditions of temperature 37°C, humidity 95% and 5% CO2.
The compound was tested at a concentration ranging from 0.5 nM to 15 µM over a total of 10 concentration gradients. TLR7 or TLR8 agonists with known activity were added as positive controls, and 1 µL of DMSO was added as a negative control.
The cells were treated as follows: the cells were removed from the culture dish and centrifuged to remove the medium, and resuspended in a T-150 bottle with 10 mL of preheated PBS, 12 mL of preheated medium was added, and the cells were gently pipetted up and down and counted under a microscope. A 200,000/mL single-cell suspension was immediately prepared with medium and added to a 96-well plate at 200 µL/well (40,000/well). The final concentration of DMSO was 0.5%.
The compound was added and incubated in an incubator at 37°C, 5% CO2 for 24 hours.
A supernatant at 20 µL/well was aspirated into 180 µL of preheated Quanti-Blue at 37°C, incubated at 37°C for 1.5 hours, and detected for the absorbance (OD value) with a spectrophotometer at 650 nm. The formula for calculating the agonistic effect is as follows:
Effect % = (average OD value of the drug-administered group - average OD value of the DMSO group) / (average OD value of the positive drug group - average OD value of the DMSO group) × 100
Graphpad software was used to fit the concentration-effect curve, and EC50 was calculated. The test results are shown in Table 15 (A denotes < 250 nM, B denotes 250 nM-1 µM, C denotes 1 µM-2 µM, D denotes > 2 µM, and - denotes not listed or not tested): Table 15

First: CCCN(CCO)C(=O)C1=Cc2ccc(C3(C(=O)Nc4cnc5c(c4)CN(C(=O)[C@H](CCCNC(N)=O)NC(=O)[C@@H](NC(=O)CCCCCN4C(=O)C=CC4=O)C(C)C)CC5)CC3)cc2N=C(N)C1 [II-19, 2-amino-8-(1-((6-((S)-2-((S)-2-(6-(2,5-dioxo-2,5-dihydro-1H-pyrrol-1-yl)hexanoylamino)-3-methylbutanoylamino)-5-ureidopentanoyl)-5,6,7,8-tetrahydro-1,6-naphthyridin-3-yl)carbamoyl)cyclopropyl)-N-(2-hydroxyethyl)-N-propyl-3H-benzo[b]azepine-4-formamide]
Second: CCCN(CCO)C(=O)C1=Cc2ccc(C3(C(=O)Nc4cnc5c(c4)CN(C(=O)CCOCCOCCNC(=O)CN4C(=O)C=CC4=O)CC5)CC3)cc2N=C(N)C1 [II-23, 2-amino-8-(1-((6-(3-(2-(2-(2-(2,5-dioxo-2,5-dihydro-1H-pyrrol-1-yl)acetylamino)ethoxy)ethoxy)propionyl)-5,6,7,8-tetrahydro-1,6-naphthyridin-3-yl)carbamoyl)cyclopropyl)-N-(2-hydroxyethyl)-N-propyl-3H-benzo[b]azepine-4-formamide]
The EC50 of the first is higher: 250 to 1000 nM for the first, < 250 nM for the second.

`CCCN(CCO)C(=O)C1=Cc2ccc(C3(C(=O)Nc4cnc5c(c4)CN(C(=O)CNC(=O)CCOCCOCCNC(=O)CCCNC(=O)CN4C(=O)C=CC4=O)CC5)CC3)cc2N=C(N)C1` [II-24, 2-amino-8-(1-((6-(20-(2,5-dioxo-2,5-dihydro-1H-pyrrol-1-yl)-4,14,19-trioxo-7,10-dioxa-3,13,18-triazaeicosanacyl)-5,6,7,8-tetrahydro-1,6-naphthyridin-3-yl)carbamoyl)cyclopropyl)-N-(2-hydroxyethyl)-N-propyl-3H-benzo[b]azepine-4-formamide] and `CCCN(CCO)C(=O)C1=Cc2ccc(C3(C(=O)Nc4cnc5c(c4)CN(C(=O)OCc4ccc(NC(=O)CCOCCOCCNC(=O)CCN6C(=O)C=CC6=O)cc4)CC5)CC3)cc2N=C(N)C1` [II-28, 4-(3-(2-(2-(3-(2,5-dioxo-2,5-dihydro-1H-pyrrol-1-yl)propionylamino)ethoxy)ethoxy)propionylamino)benzyl 3-(1-(2-amino-4-((2-hydroxyethyl)(propyl)carbamoyl)-3H-benzo[b]azepin-8-yl)cyclopropane-1-formylamino)-7,8-dihydro-1,6-naphthyridine-6(5H)-carboxylate] fall in the same range of EC50: 250 to 1000 nM for the first, 250 to 1000 nM for the second.

`CCCN(CCO)C(=O)C1=Cc2ccc(C3(C(=O)Nc4cnc5c(c4)CN(C(=O)OCc4ccc(O[C@@H]6O[C@H](C(=O)O)[C@@H](O)[C@H](O)[C@H]6O)c(NC(=O)CNC(=O)CCCCCN6C(=O)C=CC6=O)c4)CC5)CC3)cc2N=C(N)C1` [II-36, (2S,3S,4S,5R,6S)-6-(4-(((3-(1-(2-amino-4-((2-hydroxyethyl)(propyl)carbamoyl)-3H-benzo[b]azepin-8-yl)cyclopropyl-1-formylamino)-5,6,7,8-tetrahydro-1,6-naphthyridine-6-carbonyl)oxy)methyl)-2-(2-(6-(2,5-dioxo-2,5-dihydro-1H-pyrrol-1-yl)hexanoylamino)acetylamino)phenoxy)-3,4,5-trihydroxytetrahydro-2H-pyran-2-carboxylic acid] and `CCCN(CCO)C(=O)C1=Cc2ccc(C3(C(=O)Nc4cnc5c(c4)CN(C(=O)CNC(=O)CCOCCOCCNC(=O)CN4C(=O)C=CC4=O)CC5)CC3)cc2N=C(N)C1` [II-46, 2-amino-8-(1-((6-(1-(2,5-dioxo-2,5-dihydro-1H-pyrrol-1-yl)-2,12-dioxo-6,9-dioxa-3,13-diazapentadecan-15-acyl)-5,6,7,8-tetrahydro-1,6-naphthyridin-3-yl)carbamoyl)cyclopropyl)-N-(2-hydroxyethyl)-N-propyl-3H-benzo[b]azepine-4-formamide] cannot be ordered by EC50: < 250 nM for the first, < 250 nM for the second.

`CCCN(CCO)C(=O)C1=Cc2c(F)cc(C3(C(=O)Nc4cncc(CNC(=O)CNC(=O)CCOCCOCCNC(=O)CN5C(=O)C=CC5=O)c4)CC3)cc2N=C(N)C1` [II-64, 2-amino-8-(1-((5-(17-(2,5-dioxo-2,5-dihydro-1H-pyrrol-1-yl)-3,6,16-trioxo-9,12-dioxa-2,5,15-triazaheptadecyl)pyridin-3-yl)carbamoyl)cyclopropyl)-N-(2-hydroxyethyl)-6-fluoro-N-propyl-3H-benzo[b]azepine-4-formamide] and `CCCN(OCC)C(=O)C1=Cc2ccc(C3(C(=O)Nc4cnc5c(c4)CN(C(=O)CCOCCOCCOCCOCCOCCOCCNC(=O)CCN4C(=O)C=CC4=O)CC5)CC3)cc2N=C(N)C1` [II-66, 2-amino-8-(1-((6-(1-(2,5-dioxo-2,5-dihydro-1H-pyrrol-1-yl)-3-oxo-7,10,13,16,19,22-hexaoxa-4-azapentacosan-25-acyl)-5,6,7,8-tetrahydro-1,6-naphthyridin-3-yl)carbamoyl)cyclopropyl)-N-ethoxy-N-propyl-3H-benzo[b]azepine-4-formamide] fall in the same range of EC50: 250 to 1000 nM for the first, 250 to 1000 nM for the second.

`CCCN(CCO)C(=O)C1=Cc2ccc(C3(C(=O)Nc4cnc5c(c4)CN(C(=O)OCc4ccc(NC(=O)[C@H](CC(N)=O)NC(=O)[C@H](C)NC(=O)[C@H](C)NC(=O)CCCCCN6C(=O)C=CC6=O)cc4)CC5)CC3)cc2N=C(N)C1` [II-96] and `CCCN(CCO)C(=O)C1=Cc2ccc(C3(C(=O)Nc4cnc5c(c4)CN(C(=O)OCc4ccc(NC(=O)[C@H](CCCNC(N)=O)NC(=O)[C@@H](NC(=O)Cc6ccc(N7C(=O)C=CC7=O)cc6)C(C)C)cc4)CC5)CC3)cc2N=C(N)C1` [II-97] fall in the same range of EC50: 250 to 1000 nM for the first, 250 to 1000 nM for the second.

`CCCN(CCO)C(=O)C1=Cc2ccc(C3(C(=O)Nc4cnc5c(c4)CN(C(=O)OCc4ccc(NC(=O)[C@H](CCCNC(N)=O)NC(=O)[C@@H](NC(=O)C6COC(CN7C(=O)C=CC7=O)OC6)C(C)C)cc4)CC5)CC3)cc2N=C(N)C1` (stereo partly shown) [II-98] and `CCCN(CCO)C(=O)C1=Cc2ccc(C3(C(=O)Nc4cnc5c(c4)CN(C(=O)CCOCCOCCNC(=O)OCc4ccc(NC(=O)[C@H](CCCNC(N)=O)NC(=O)[C@@H](NC(=O)CCCCCN6C(=O)C=CC6=O)C(C)C)cc4)CC5)CC3)cc2N=C(N)C1` [II-104] fall in the same range of EC50: 250 to 1000 nM for the first, 250 to 1000 nM for the second.

Work on “(S)-1-((1-(3-(1-(2-amino-4-((2-hydroxyethyl)(propyl)carbamoyl)-3H-benzo[b]azepin-8-yl)cyclopropyl-1-amido)-7,8-dihydro-1,6-naphthyridin-6(5H)-yl)-1-oxo-5-ureidopentan-2-yl)carbamoylamino)cyclobutyl-1-carboxylic acid [Example 35]” yielded an EC50 of 250 to 1000 nM.
